Results as given in US20040024024A1, “Aromatic sulfone hydroxamates and their use as protease inhibitors” (priority 2001, published 2004).
Blank lines part the entries; values can stand above or below the compound they belong to.

Key:
Assay in all cases: In vitro MMP inhibition, IC50 determination (fluorogenic substrate I)
Format in all cases: biochemical
[1] = molecular target: T1, Human recombinant MMP-2 (Homo sapiens, UniProt P08253)
T1 construct: made in house; host or cells: MMP-2-transfected p2AHT2 cells
T1 sequence (P08253 110-660): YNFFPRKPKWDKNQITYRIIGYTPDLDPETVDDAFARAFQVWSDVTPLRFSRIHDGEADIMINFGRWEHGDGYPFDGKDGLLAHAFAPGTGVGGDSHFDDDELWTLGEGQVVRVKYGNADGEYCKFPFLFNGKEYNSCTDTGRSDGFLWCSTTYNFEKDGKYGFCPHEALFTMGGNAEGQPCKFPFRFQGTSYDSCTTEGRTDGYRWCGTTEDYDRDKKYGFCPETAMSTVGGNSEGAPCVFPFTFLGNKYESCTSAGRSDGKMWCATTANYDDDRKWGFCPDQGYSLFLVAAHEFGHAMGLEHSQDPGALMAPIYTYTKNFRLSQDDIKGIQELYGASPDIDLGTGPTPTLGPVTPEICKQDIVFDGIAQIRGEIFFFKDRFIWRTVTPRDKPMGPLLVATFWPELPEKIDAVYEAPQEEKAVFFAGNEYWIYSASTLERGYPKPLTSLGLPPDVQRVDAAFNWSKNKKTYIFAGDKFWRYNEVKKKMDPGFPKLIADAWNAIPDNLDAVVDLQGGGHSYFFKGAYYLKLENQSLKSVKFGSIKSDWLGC
Procedure, shortened: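 IC50 was derived from the concentration-dependent fall in fluorescence (ex 328, em 415 nm) on Gly-Leu cleavage of 4 μM MCA/Dpa-quenched substrate I. Assays ran at room temperature in pH 7.5 Tris/NaCl/CaCl2/Brij buffer with MMP-2 activated by trypsin or APMA; inhibitors were diluted from 1% DMSO stocks.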

[2] = molecular target: T2, Human recombinant MMP-9 (Homo sapiens, UniProt P14780)
T2 construct: made in house; host or cells: MMP-9-transfected HT1080 cells (spent media)
T2 sequence (P14780 107-707 limits assumed): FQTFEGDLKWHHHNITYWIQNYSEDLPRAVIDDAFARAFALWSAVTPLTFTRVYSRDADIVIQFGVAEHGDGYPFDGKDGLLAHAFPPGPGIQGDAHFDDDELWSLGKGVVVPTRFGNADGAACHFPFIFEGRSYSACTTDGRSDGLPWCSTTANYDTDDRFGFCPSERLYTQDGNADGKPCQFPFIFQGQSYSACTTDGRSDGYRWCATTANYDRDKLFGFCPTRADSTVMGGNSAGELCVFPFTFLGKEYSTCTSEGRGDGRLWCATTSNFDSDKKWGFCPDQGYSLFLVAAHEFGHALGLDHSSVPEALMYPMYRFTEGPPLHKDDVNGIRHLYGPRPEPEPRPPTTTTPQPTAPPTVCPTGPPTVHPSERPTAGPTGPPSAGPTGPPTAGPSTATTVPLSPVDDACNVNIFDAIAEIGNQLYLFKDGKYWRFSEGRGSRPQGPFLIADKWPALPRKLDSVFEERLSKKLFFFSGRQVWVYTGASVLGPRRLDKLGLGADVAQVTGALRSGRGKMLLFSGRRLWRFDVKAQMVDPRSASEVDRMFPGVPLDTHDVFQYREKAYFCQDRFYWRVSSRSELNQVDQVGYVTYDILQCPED
Procedure, shortened: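 Reduction in fluorescence (328 nm excitation, 415 nm emission) from cleavage of 4 μM quenched peptide substrate I, measured at room temperature against inhibitor concentration, gave IC50. Enzyme: trypsin- or APMA-activated MMP-9 purified from transfected HT1080 medium; buffer 100 mM Tris, 100 mM NaCl, 10 mM CaCl2, pH 7.5.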

[3] = molecular target: T3, Human recombinant MMP-14 (Homo sapiens, UniProt P50281)
T3 construct: The catalytic domain enzyme was expressed in E. coli inclusion bodies, solubilized in urea; made in house
Procedure, shortened: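 IC50 came from reduced fluorescence (ex 328 nm, em 415 nm) as inhibitor concentration rose, with 4 μM substrate I cleaved at Gly-Leu. Room-temperature incubation in pH 7.5 Tris buffer with 10 mM CaCl2; the E. coli-expressed, refolded MMP-14 catalytic domain was activated with trypsin or APMA.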

[4] = substrate (I) 4 μM, room temperature, values not in parenthesis

IC50 ([1]; value outside parentheses): 2140 nM
Structure (SMILES): O=C(NO)C1(S(=O)(=O)c2ccc(OCCCc3cccc(-c4csc5ccccc45)c3)cc2)CCOCC1 [Example 631]

IC50 ([1]; value outside parentheses): < 0.1 nM
IC50 ([2]; value outside parentheses): 11.6 nM
IC50 ([3]; value outside parentheses): 57 nM
Structure (SMILES): O=C(NCCOc1ccc(S(=O)(=O)C2(C(=O)NO)CCOCC2)cc1)c1cc2ccccc2[nH]1 [Example 599]

Structure (SMILES): O=C(NO)C1(S(=O)(=O)c2ccc(OCCCc3nc(-c4ccc(OC(F)(F)F)cc4)no3)cc2)CCOCC1 [Example 31, tetrahydro-N-hydroxy-4-[[4-[3-[3[4-(trifluoromethoxy)phenyl]-1,2,4-oxadiazol-5-yl]propoxy]phenyl]sulfonyl]-2H-pyran-4-carboxamide]
IC50 [1, 4]: 346 nM
IC50 [2, 4]: 5650 nM
IC50 [3, 4]: > 10000 nM

IC50 ([1]; value outside parenthesis): 1600 nM
Structure (SMILES): O=C(NO)C1(S(=O)(=O)c2ccc(OCCCc3cccc(-c4ccccc4Cl)c3)cc2)CCOCC1 [Example 162]

IC50 ([1]; value outside parenthesis): 1000 nM
IC50 ([2]; value outside parenthesis): 2630 nM
IC50 ([3]; value outside parenthesis): > 10000 nM
Structure (SMILES): O=C(NO)C1(S(=O)(=O)c2ccc(OCCCc3cccc(-c4cccc(F)c4)c3)cc2)CCOCC1 [Example 161]

IC50 ([1]; value outside parentheses): 247 nM
Structure (SMILES): Cc1ccc(-c2cccc(CCCOc3ccc(S(=O)(=O)C4(C(=O)NO)CCOCC4)cc3)c2)s1 [Example 639]

IC50 ([1]; value outside parenthesis): 48 nM
IC50 ([2]; value outside parenthesis): 1690 nM
IC50 ([3]; value outside parenthesis): > 10000 nM
Structure (SMILES): COCCN1CCC(C(=O)NO)(S(=O)(=O)c2ccc(OCCCc3cccc(-c4ccc(F)cc4)c3)cc2)CC1 [Example 140]

IC50 ([1]; value outside parentheses): 3500 nM
Structure (SMILES): O=C(NO)C1(S(=O)(=O)c2ccc(OCCCc3cccc(-c4ccc(C(F)(F)F)cc4)c3)cc2)CCOCC1 [Example 625]

IC50 ([1]; value outside parenthesis): 3400 nM
Structure (SMILES): Cc1ccc(-c2cccc(CCCOc3ccc(S(=O)(=O)C4(C(=O)NO)CCOCC4)cc3)c2)cc1C [Example 165]

IC50 ([1]; value outside parenthesis): 13.8 nM
IC50 ([2]; value outside parenthesis): 1170 nM
IC50 ([3]; value outside parenthesis): > 10000 nM
Structure (SMILES): CCc1ccccc1-c1noc(CCCOc2ccc(S(=O)(=O)C3(C(=O)NO)CCN(CCOC)CC3)cc2)n1 [Example 155]

IC50 ([1]; value outside parentheses): 12.9 nM
Structure (SMILES): O=C(NO)C1(S(=O)(=O)c2ccc(OCCCc3cncc(Br)c3)cc2)CCOCC1 [Example 522]

IC50 [1, 4]: 112 nM
IC50 [2, 4]: 413 nM
IC50 [3, 4]: > 10000 nM
Structure (SMILES): O=C(NO)C1(S(=O)(=O)c2ccc(OCCc3cccc(-c4ccccn4)c3)cc2)CCOCC1 [Example 40]

IC50 [1, 4]: 321 nM
IC50 [2, 4]: 1970 nM
IC50 [3, 4]: > 10000 nM
Structure (SMILES): CCN1CCC(C(=O)NO)(S(=O)(=O)c2ccc(OCCCc3cccc(-c4ccccc4)c3)cc2)CC1 [Example 46]

IC50 [1, 4]: 274 nM
IC50 [2, 4]: 4060 nM
IC50 [3, 4]: > 10000 nM
Structure (SMILES): O=C(NO)C1(S(=O)(=O)c2ccc(OCCCn3nnc(-c4ccc(OC(F)(F)F)cc4)n3)cc2)CCN(C2CC2)CC1 [Example 49]

IC50 ([1]; value outside parenthesis): > 10000 nM
Structure (SMILES): CC(C)c1ccc(-c2cccc(CCCOc3ccc(S(=O)(=O)C4(C(=O)NO)CCOCC4)cc3)c2)cc1 [Example 160]

IC50 ([1]; value outside parentheses): 1170 nM
IC50 ([2]; value outside parentheses): 5990 nM
IC50 ([3]; value outside parentheses): > 10000 nM
Structure (SMILES): O=C(NO)C1(S(=O)(=O)c2ccc(OCCCc3cccc(-c4ccc(F)cc4F)c3)cc2)CCOCC1 [Example 630]

IC50 ([1]; value outside parenthesis): 226 nM
IC50 ([2]; value outside parenthesis): 3630 nM
IC50 ([3]; value outside parenthesis): > 10000 nM
Structure (SMILES): CN(C(=O)CCCOc1ccc(S(=O)(=O)C2(C(=O)NO)CCOCC2)cc1)c1ccc(OC(F)(F)F)cc1 [Example 249]

IC50 ([1]; value outside parentheses): 38.3 nM
IC50 ([2]; value outside parentheses): 1840 nM
IC50 ([3]; value outside parentheses): > 10000 nM
Structure (SMILES): O=C(NO)C1(S(=O)(=O)c2ccc(OCCCc3cncc(-c4ccccc4)c3)cc2)CCOCC1 [Example 524]

IC50 ([1]; value outside parentheses): 81.7 nM
IC50 ([2]; value outside parentheses): 1370 nM
IC50 ([3]; value outside parentheses): > 10000 nM
Structure (SMILES): O=C(NO)C1(S(=O)(=O)c2ccc(OCCCc3cc(-c4ccc(F)cc4F)cs3)cc2)CCOCC1 [Example 587]

IC50 ([1]; value outside parentheses): 4.8 nM
Structure (SMILES): O=C(CCCOc1ccc(S(=O)(=O)C2(C(=O)NO)CCOCC2)cc1)Nc1cccc(I)c1 [Example 570]

IC50 ([1]; value outside parenthesis): 182 nM
IC50 ([2]; value outside parenthesis): 2470 nM
IC50 ([3]; value outside parenthesis): > 10000 nM
Structure (SMILES): O=C(NO)C1(S(=O)(=O)c2ccc(OCCOc3cccc(-c4ccccc4)c3)cc2)CCOCC1 [Example 157]

IC50 ([1]; value outside parenthesis): 590 nM
IC50 ([2]; value outside parenthesis): > 10000 nM
IC50 ([3]; value outside parenthesis): > 10000 nM
Structure (SMILES): Cc1cc(NC(=O)CCCOc2ccc(S(=O)(=O)C3(C(=O)NO)CCOCC3)cc2)ccc1OC(C)C [Example 290]

IC50 ([1]; value outside parenthesis): 77.1 nM
Structure (SMILES): O=C(NO)C1(S(=O)(=O)c2ccc(OCCCc3cccc(-c4ccncc4)c3)cc2)CCOCC1 [Example 149]

IC50 ([1]; value outside parenthesis): 10.9 nM
IC50 ([2]; value outside parenthesis): 111 nM
IC50 ([3]; value outside parenthesis): 9120 nM
Structure (SMILES): O=C(NO)C1(S(=O)(=O)c2ccc(OCCCc3cccc(Br)c3)cc2)CCOCC1 [Example 154]
